Assay results as given in patent publication US20210177828A1, “TAM FAMILY KINASE /AND CSF1R KINASE INHIBITOR AND USE THEREOF” (Nanjing Transthera Biosciences Co., Ltd., priority 2018, published 2021).

Assays:
CSF1R (h) = CSF1R (h) (Homo sapiens, UniProt P07333); test: Enzymatic activity assay, CSF1R (h), [γ-33P]-ATP filter assay; format: biochemical; settings: 10 μM ATP, 40 min room temperature; read-out: Inhibitory activity IC50 CSF1R(h)
Protocol: Compounds were each dissolved in 100% DMSO to prepare stock solutions with a maximum concentration of 500 μM.
Compound working solutions (50×) were prepared by diluting a compound stock solution to a final concentration of 500, 150, 50, 15, 5, 1.5, 0.5, 0.15 and 0.05 μM.
An enzyme solution with a final concentration of 64 nM was prepared by dissolving CSF1R enzyme in a mixture of 8 mM MOPS (pH 7.0), 0.2 mM EDTA and 250 μM KKSRGDYMTMQIG. A Mg/ATP mixture of 10 mM magnesium acetate and 10 μM [γ-^33P]-ATP was used to activate the enzymatic reaction.
A compound working solution was added to a 384-well plate, with final concentrations of 10,000, 3,000, 1,000, 300, 100, 30, 10, 3 and 1 nM, and then different enzymatic reaction solutions prepared according to the above conditions were added. The reaction solutions were incubated at room temperature for 40 min, and then 0.5% phosphoric acid solutions were added to terminate the reaction. 10 μL of the reaction solution was added dropwise to P30 filter paper, washed 4 times with a 0.425% phosphoric acid solution and once with methanol, and then placed in a scintillation counter for detection. Gray analysis was performed on the results with Image J software, and IC50 values were calculated with GraphPad 5.0 software.

MDA-MB-231 cell pAxl = biological target: T1, MDA-MB-231 cell pAxl (Homo sapiens, UniProt P30530); test: Inhibitory activity on cell pAxl, MDA-MB-231 cells, hGAS6 stimulation, Western Blot; format: cell-based; settings: hGAS6 200 ng/mL
T1 construct: endogenous in cells; host or cells: MDA-MB-231
T1 sequence (P30530 26-894): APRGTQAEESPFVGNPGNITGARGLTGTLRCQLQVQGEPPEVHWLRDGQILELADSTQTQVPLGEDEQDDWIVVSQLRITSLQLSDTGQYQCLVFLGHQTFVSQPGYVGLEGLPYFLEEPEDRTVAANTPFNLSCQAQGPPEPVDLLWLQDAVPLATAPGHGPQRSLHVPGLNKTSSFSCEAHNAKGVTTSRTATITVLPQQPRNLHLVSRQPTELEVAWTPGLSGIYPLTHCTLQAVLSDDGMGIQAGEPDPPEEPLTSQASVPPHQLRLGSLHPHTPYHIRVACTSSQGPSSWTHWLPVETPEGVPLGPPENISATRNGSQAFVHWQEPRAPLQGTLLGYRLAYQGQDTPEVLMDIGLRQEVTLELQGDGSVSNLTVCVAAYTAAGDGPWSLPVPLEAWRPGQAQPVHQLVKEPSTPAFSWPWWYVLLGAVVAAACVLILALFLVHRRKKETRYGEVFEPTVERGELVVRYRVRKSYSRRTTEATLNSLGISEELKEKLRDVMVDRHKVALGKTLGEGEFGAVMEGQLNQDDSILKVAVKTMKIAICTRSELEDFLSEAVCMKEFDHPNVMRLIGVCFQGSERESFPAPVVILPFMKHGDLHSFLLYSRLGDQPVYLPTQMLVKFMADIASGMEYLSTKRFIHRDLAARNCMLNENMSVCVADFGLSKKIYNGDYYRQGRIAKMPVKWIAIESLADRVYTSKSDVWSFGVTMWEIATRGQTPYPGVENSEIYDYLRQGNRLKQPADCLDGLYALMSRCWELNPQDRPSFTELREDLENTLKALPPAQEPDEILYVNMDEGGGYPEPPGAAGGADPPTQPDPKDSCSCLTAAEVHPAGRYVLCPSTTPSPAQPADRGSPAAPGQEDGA
Protocol: MDA-MB-231 is a breast cancer cell.
MDA-MB-231 cells were inoculated to a 6-well plate (containing 10% FBS DMEM medium, […] cells per well) and adherently cultivated at 37° C., and 5% CO2 for 18 hrs. The cells were starved overnight, and then compound solutions with different concentrations were added. Compounds 1 and 2 had final concentrations of 1.1, 3.3 and 10 nM, and the remaining compounds had final concentrations of 1.1, 3.3, 10 and 30 nM. […] There was a medium containing 1‰DMSO in the negative control well. The cells were incubated at 37° C., and 5% CO2 for 60 min, and then hGAS6 (R&D, final concentration: 200 ng/mL) was added to each well. The cells were further incubated for 60 min, and then the total protein of the cells was extracted for Western Blot experiment. Gray analysis was performed on the results with Image J software, and IC50 values were calculated with GraphPad 5.0 software. The inhibitory activities of the compounds on cell pAxl were detected.

[1] = Liver microsomal stability; format: in vitro ADME; settings: mouse liver microsomes, 0.5 mg protein/mL, 1 μM compound
Protocol: An appropriate amount of the compound was precisely weighed and dissolved in DMSO to prepare a 5.0 mM stock solution. The 5.0 mM stock solution was diluted with DMSO to 1.0 mM, and finally diluted with water to a 10 μM working solution of the test sample for use (the DMSO content in the reaction system was 0.1%).
(1) The liver microsomes (20 mg protein/mL) were taken from a −80° C. refrigerator, pre-incubated on a 37° C. water bath thermostatic oscillator for 3 min, and thawed for use.
(2) An incubation system (without compound and β-NADPH) was prepared according to “composition of the incubation system” described above, and pre-incubated on a 37° C. water bath thermostatic oscillator for 2 min.
(3) Control group (without β-NADPH): 30 μL of water and 30 μL of compound working solution (10 μM) were added to 240 μL of the incubation system in step (2), and the reaction system was vortexed for 30 s and thoroughly mixed. The total volume of the reaction system was 300 μL. The sample was duplicated. The reaction solution was placed on a 37° C. water bath thermostatic oscillator for incubation, and timing was started. The sampling was conducted at 0 min and 60 min.
(4) Sample group: 70 μL of β-NADPH solution (10 mM) and 70 μL of compound working solution (10 μM) were added to 560 μL of the incubation system in step (2), and the total volume of the reaction system was 700 μL. The reaction solution was vortexed for 30 s and thoroughly mixed. The sample was duplicated. The reaction solution was placed on a 37° C. water bath thermostatic oscillator for incubation, and timing was started. The sampling was conducted at 0 min, 5 min, 10 min, 20 min, 30 min and 60 min.
(5) The reaction solution was vortexed for 3 min, and centrifuged at 12,000 rpm for 5 min.
(6) 50 μL of the supernatant was added to 150 μL of water, and the resulting solution was thoroughly vortexed and analyzed by LC/MS/MS.

CSF1R (h), sequence (P07333 20-972): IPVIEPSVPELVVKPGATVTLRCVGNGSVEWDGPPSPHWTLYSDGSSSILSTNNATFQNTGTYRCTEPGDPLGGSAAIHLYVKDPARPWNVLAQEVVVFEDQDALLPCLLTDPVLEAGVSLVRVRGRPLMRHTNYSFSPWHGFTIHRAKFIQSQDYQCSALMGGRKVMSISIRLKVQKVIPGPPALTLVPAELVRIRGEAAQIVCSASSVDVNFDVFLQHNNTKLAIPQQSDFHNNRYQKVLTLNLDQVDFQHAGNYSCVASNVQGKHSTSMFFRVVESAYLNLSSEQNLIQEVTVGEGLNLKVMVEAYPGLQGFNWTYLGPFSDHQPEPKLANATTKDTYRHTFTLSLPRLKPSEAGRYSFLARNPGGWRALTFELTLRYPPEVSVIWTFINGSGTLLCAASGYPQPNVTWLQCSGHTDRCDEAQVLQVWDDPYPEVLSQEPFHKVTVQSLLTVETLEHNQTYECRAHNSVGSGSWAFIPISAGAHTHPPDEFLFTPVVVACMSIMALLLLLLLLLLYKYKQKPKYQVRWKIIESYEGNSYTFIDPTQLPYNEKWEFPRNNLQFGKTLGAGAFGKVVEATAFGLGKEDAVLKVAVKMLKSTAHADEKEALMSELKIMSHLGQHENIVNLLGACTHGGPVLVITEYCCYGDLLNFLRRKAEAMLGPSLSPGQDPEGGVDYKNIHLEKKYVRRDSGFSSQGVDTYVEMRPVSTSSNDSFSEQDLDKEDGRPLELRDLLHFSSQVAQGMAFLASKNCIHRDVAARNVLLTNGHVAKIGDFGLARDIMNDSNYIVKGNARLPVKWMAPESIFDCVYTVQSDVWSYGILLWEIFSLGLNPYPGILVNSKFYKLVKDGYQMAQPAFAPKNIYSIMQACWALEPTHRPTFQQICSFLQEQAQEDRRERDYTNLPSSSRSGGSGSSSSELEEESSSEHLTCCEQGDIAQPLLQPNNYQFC

| IC50 (CSF1R (h)) | IC50 (MDA-MB-231 cell pAxl) | half-life at 1 μM [1] | microsomal CLint at 1 μM [1] | Structure (SMILES) |
| --- | --- | --- | --- | --- |
| < 200 nM | < 1.1 nM | 3.22 h | 7.2 µL/min/mg | COc1cc2nccc(Oc3cnc(NC(=O)c4cn(CC5CCOCC5)cc(-c5ccc(C)cc5)c4=O)nc3)c2cc1OC [Compound 4, N-(5-((6,7-dimethoxyquinolin-4-yl)oxy)pyrimidin-2-yl)-4-oxo-1-((tetrahydro-2H-pyran-4-yl)methyl)-5-(p-tolyl)-1,4-dihydropyridin-3-carboxamide] |
| < 200 nM | < 1.1 nM | 1.87 h | 12.4 µL/min/mg | COc1cc2nccc(Oc3ccc(NC(=O)c4nn(C5CCOCC5)cc(-c5ccc(C)cc5)c4=O)nc3)c2cc1OC [Compound 17, N-(5-((6,7-dimethoxyquinolin-4-yl)oxy)pyridin-2-yl)-4-oxo-1-(tetrahydro-2H-pyran-4-yl)-5-(p-tolyl)-1,4-dihydropyridazin-3-carboxamide] |
| < 200 nM | < 1.1 nM | 1.93 h | 12 µL/min/mg | COc1cc2nccc(Oc3cnc(NC(=O)c4nn(C5CCOCC5)cc(-c5ccc(C)cc5)c4=O)nc3)c2cc1OC [Compound 18, N-(5-((6,7-dimethoxyquinolin-4-yl)oxy)pyrimidin-2-yl)-4-oxo-1-(tetrahydro-2H-pyran-4-yl)-5-(p-tolyl)-1,4-dihydropyridazin-3-carboxamide] |
| < 200 nM |  | 6.42 h | 3.6 µL/min/mg | COc1cc2nccc(Oc3cnc(NC(=O)c4cn(C5CCOCC5)cc(-c5ccc(F)cc5)c4=O)nc3)c2cc1OC [Compound 31, N-(5-((6,7-dimethoxyquinolin-4-yl)oxy)pyrimidin-2-yl)-5-(4-fluorophenyl)-4-oxo-1-(tetrahydro-2H-pyran-4-yl)-1,4-dihydropyridin-3-carboxamide] |
| < 200 nM | < 1.1 nM | 3.5 h | 6.6 µL/min/mg | COc1cc2nccc(Oc3cnc(NC(=O)c4nn(CC5CCOCC5)cc(-c5ccc(C)cc5)c4=O)nc3)c2cc1OC [Compound 16, N-(5-((6,7-dimethoxyquinolin-4-yl)oxy)pyrimidin-2-yl)-4-oxo-1-((tetrahydro-2H-pyran-4-yl)methyl)-5-(p-tolyl)-1,4-dihydropyridazin-3-carboxamide] |
| < 200 nM |  | 4.82 h | 4.8 µL/min/mg | COc1cc2nccc(Oc3cnc(NC(=O)c4nn(C5CCOCC5)cc(-c5ccc(F)cc5)c4=O)nc3)c2cc1OC [Compound 33, N-(5-((6,7-dimethoxyquinolin-4-yl)oxy)pyrimidin-2-yl)-5-(4-fluorophenyl)-4-oxo-1-(tetrahydro-2H-pyran-4-yl)-1,4-dihydropyridazin-3-carboxamide] |
| < 200 nM | < 1.1 nM |  |  | COc1cc2nccc(Oc3ccc(NC(=O)c4nn(CC5CCOCC5)cc(-c5ccc(C)cc5)c4=O)nc3)c2cc1OC [Compound 2, N-(5-((6,7-dimethoxyquinolin-4-yl)oxy)pyridin-2-yl)-4-oxo-1-((tetrahydro-2H-pyran-4-yl)methyl)-5-(p-tolyl)-1,4-dihydropyridazin-3-carboxamide] |
| < 200 nM | < 3.3 nM | 1.75 h | 13.2 µL/min/mg | COc1cc2nccc(Oc3ccc(NC(=O)c4cc(CC5CCOCC5)cn(-c5ccc(C)cc5)c4=O)nc3)c2cc1OC [Compound 26, N-(5-((6,7-dimethoxyquinolin-4-yl)oxy)pyridin-2-yl)-oxo-5-((tetrahydro-2H-pyran-4-yl)methyl)-1-(p-tolyl)-1,2-dihydropyridin-3-carboxamide] |
| < 200 nM | < 10 nM | 3.73 h | 6.2 µL/min/mg | COc1cc2nccc(Oc3cnc(NC(=O)c4cn(C5CCOCC5)cc(-c5ccc(C)cc5)c4=O)nc3)c2cc1OC [Compound 20, N-(5-((6,7-dimethoxyquinolin-4-yl)oxy)pyrimidin-2-yl)-4-oxo-1-(tetrahydro-2H-pyran-4-yl)-5-(p-tolyl)-1,4-dihydropyridin-3-carboxamide] |
